Target: rat mGlu2 (Rattus norvegicus (Rat), UniProt P31421)
Assay: mGlu2 Ca2+ flux assay
Format: cell-based
Settings: for IC50: Gα15 HEK293 cells stably expressing rat mGlu2, glutamate EC80, >10,000 = no plateau, >30,000 = no measurable activity; for remaining activity at 30 µM: amplitude of response in the presence of 30 μM test compound as percentage of maximal response to glutamate, read-out: rat mGlu2 Glu max; for NAM designation: concentration-dependent decrease in the glutamate EC80 response
Protocol: Gα15 HEK293 cells stably expressing rat mGlu2 were plated in black-walled, clear-bottomed, poly-D-lysine coated 384-well plates in 20 μL of assay medium (DMEM containing 10% dialyzed FBS, 20 mM HEPES, and 1 mM sodium pyruvate) at a density of 12K cells/well. The cells were grown overnight at 37° C. in the presence of 5% CO2. The next day, medium was removed and the cells incubated with 20 μL of 2.3 μM Fluo-4, AM prepared as a 2.3 mM stock in DMSO and mixed in a 1:1 ratio with 10% (w/v) pluronic acid F-127 and diluted in assay buffer (Hank's balanced salt solution, 20 mM HEPES, and 2.5 mM probenecid) for 45 minutes at 37° C. Dye was removed, 20 μL of assay buffer was added, and the plate was incubated for 5 minutes at room temperature.
Ca^2+ flux was measured using the Functional Drug Screening System (FDSS7000, Hamamatsu, Japan). After establishment of a fluorescence baseline for about 3 seconds, the compounds of the present invention were added to the cells, and the response in cells was measured. 2.3 minutes later an EC20 concentration of the mGlu2 receptor agonist glutamate was added to the cells, and the response of the cells was measured for 1.9 minutes; an EC80 concentration of agonist was added and readings taken for an additional 1.7 minutes. All test compounds were dissolved and diluted to a concentration of 10 mM in 100% DMSO. Compounds were then serially diluted 1:3 in DMSO into 10 point concentration response curves, transferred to daughter plates, and further diluted into assay buffer to a 2× stock. Calcium fluorescence measures were recorded as fold over basal fluorescence; raw data was then normalized to the maximal response to glutamate. Antagonism of the agonist response of the mGlu2 receptor in the present invention was observed as a decrease in response to nearly maximal concentrations of glutamate in the presence of compound compared to the response to glutamate in the absence of compound.
The raw data file containing all time points was used as the data source in the analysis template. This was saved by the FDSS as a tab-delimited text file. Data were normalized using a static ratio function (F/F0) for each measurement of the total 360 values per well divided by each well's initial value. Data were then reduced to peak amplitudes (Max−Initial Min) using a time range that starts approximately 3 seconds prior to the glutamate EC80 addition and continues for approximately 90 seconds. This is sufficient time to capture the peak amplitude of the cellular calcium response. Individual amplitudes were expressed as % ECMax by multiplying each amplitude by 100 and then dividing the product by the mean of the amplitudes derived from the glutamate ECMax-treated wells. IC50 values for test compounds were generated by fitting the normalized values versus the log of the test compound concentration (in mol/L) using a 4 parameter logistic equation where none of the parameters were fixed. Each of the three values collected at each concentration of test compound were weighted evenly.
For NAMs, potency (IC50) and maximum response (% Glu Max), i.e. the amplitude of response in the presence of 30 μM test compound as a percentage of the maximal response to glutamate, are reported. […] Compounds with no measurable activity are designated as “>30,000 nM” since the top concentration of compound tested in the assay is 30 μM.

Sequence of rat mGlu2 (P31421 19-872): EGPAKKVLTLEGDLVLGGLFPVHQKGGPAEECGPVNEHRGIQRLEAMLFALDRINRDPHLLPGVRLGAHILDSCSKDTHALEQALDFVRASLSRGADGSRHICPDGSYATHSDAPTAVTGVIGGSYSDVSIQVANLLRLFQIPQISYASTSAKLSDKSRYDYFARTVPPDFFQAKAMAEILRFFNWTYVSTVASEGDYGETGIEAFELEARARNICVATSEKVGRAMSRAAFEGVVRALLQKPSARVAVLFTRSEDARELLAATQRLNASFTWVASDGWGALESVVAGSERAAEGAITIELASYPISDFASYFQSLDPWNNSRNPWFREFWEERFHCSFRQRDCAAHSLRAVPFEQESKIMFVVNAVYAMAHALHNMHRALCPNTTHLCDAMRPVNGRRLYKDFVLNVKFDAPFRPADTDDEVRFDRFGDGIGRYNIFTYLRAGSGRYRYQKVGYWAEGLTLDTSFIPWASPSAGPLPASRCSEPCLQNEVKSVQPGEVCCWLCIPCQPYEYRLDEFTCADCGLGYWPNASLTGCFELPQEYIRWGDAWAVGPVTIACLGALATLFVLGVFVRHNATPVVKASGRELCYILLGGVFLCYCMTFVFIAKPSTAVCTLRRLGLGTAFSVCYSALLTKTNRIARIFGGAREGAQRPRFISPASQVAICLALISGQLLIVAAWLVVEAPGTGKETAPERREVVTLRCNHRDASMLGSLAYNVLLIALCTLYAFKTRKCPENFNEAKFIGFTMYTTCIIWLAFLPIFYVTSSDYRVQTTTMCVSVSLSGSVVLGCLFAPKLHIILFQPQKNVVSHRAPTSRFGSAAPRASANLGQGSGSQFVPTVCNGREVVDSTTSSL

| Structure (SMILES) | IC50 | remaining activity at 30 µM | NAM designation |
| --- | --- | --- | --- |
| COc1ccc(-c2cc(C(N)=O)ncc2OCc2cc(F)cc(F)c2)c(F)c1 [Compound 31, 5-((3,5-difluorobenzyl)oxy)-4-(2-fluoro-4-methoxyphenyl)picolinamide] | 395 nM | 1.46% | (Partial NAM) |
| NC(=O)c1cc(-c2ccc(F)cc2)c(OCCOc2cccc(Br)c2)cn1 [Compound 106, 5-(2-(3-bromophenoxy)ethoxy)-4-(4-fluorophenyl)picolinamide] | 3440 nM | 26.5% | (Partial NAM) |
| NC(=O)c1cc(-c2ccc(F)cc2)c(OCCOc2cc(F)cc(Br)c2)cn1 [Compound 102, 5-(2-(3-bromo-5-fluorophenoxy)ethoxy)-4-(4-fluorophenyl)picolinamide] | 5240 nM | 3.34% |  |
| NC(=O)c1cc(-c2ccc(C(F)(F)F)nc2)c(OCc2cccnc2)cn1 [Compound 40, 5′-(pyridin-3-ylmethoxy)-6-(trifluoromethyl)[3,4′-bipyridine]-2′-carboxamide] | > 30000 nM |  |  |
| N#Cc1cc(-c2ccc(F)cc2)c(OCc2cncc(Cl)c2)cn1 [Compound 13, 5-((5-chloropyridin-3-yl)methoxy)-4-(4-fluorophenyl)picolinonitrile] | > 30000 nM |  |  |
| NC(=O)c1cc(-c2ccc(F)cc2)c(OCCOc2cccc(Br)c2F)cn1 [Compound 104, 5-(2-(3-bromo-2-fluorophenoxy)ethoxy)-4-(4-fluorophenyl)picolinamide] | > 30000 nM |  |  |
| N#Cc1cc(-c2ccc(F)cc2)c(OCCCOc2ccc(C(F)(F)F)nc2)cn1 [Compound 66, 4-(4-fluorophenyl)-5-(3-((6-(trifluoromethyl)pyridin-3-yl)oxy)propoxy)picolinonitrile] | > 30000 nM |  |  |
| NC(=O)c1cc(-c2ccc(F)cc2)c(OC2CCN(c3ccnc(C(F)(F)F)c3)C2)cn1 (stereo not shown) [Compound 57, 4-(4-fluorophenyl)-5-((1-(2-(trifluoromethyl)pyridin-4-yl)pyrrolidin-3-yl)oxy)picolinamide] | 2120 nM | 2.39% |  |
| N#Cc1cccc(OCCOc2cnc(C(N)=O)cc2-c2ccc(F)cc2)c1 [Compound 152, 5-(2-(3-cyanophenoxy)ethoxy)-4-(4-fluorophenyl)picolinamide] | 1220 nM | 1.44% |  |
| NC(=O)c1cc(-c2ccc(F)cc2)c(OCc2ccc(C(F)(F)F)nc2)cn1 [Compound 43, 4-(4-fluorophenyl)-5-((6-(trifluoromethyl)pyridin-3-yl)methoxy)picolinamide] | 717 nM | 0.74% |  |
| CC(COc1ccnc(C(F)(F)F)c1)Oc1cnc(C(N)=O)cc1-c1ccc(F)cc1 (stereo not shown) [Compound 120, 4-(4-fluorophenyl)-5-((1-((2-(trifluoromethyl)pyridin-4-yl)oxy)propan-2-yl)oxy)picolinamide] | 483 nM | 1.72% |  |
| N#Cc1cc(-c2ccc(F)cc2)c(OCC2CCOCC2)cn1 [Compound 9, 4-(4-fluorophenyl)-5-((tetrahydro-2H-pyran-4-yl)methoxy)picolinonitrile] | > 30000 nM |  |  |
| CC(COc1cnc(C#N)cc1-c1ccc(F)cc1)Oc1ccnc(C(F)(F)F)c1 (stereo not shown) [Compound 63, 4-(4-fluorophenyl)-5-(2-((2-(trifluoromethyl)pyridin-4-yl)oxy)propoxy)picolinonitrile] | > 10000 nM | 30.7% |  |
| CN(CCOc1cnc(C(N)=O)cc1-c1ccc(F)cc1)c1ccnc(C(F)(F)F)c1 [Compound 55, 4-(4-fluorophenyl)-5-(2-(methyl(2-(trifluoromethyl)pyridin-4-yl)amino)ethoxy)picolinamide] | 1580 nM | 4.02% |  |
| NC(=O)c1cc(-c2ccc(F)cc2)c(OCCOc2cc(Br)ccc2F)cn1 [Compound 101, 5-(2-(5-bromo-2-fluorophenoxy)ethoxy)-4-(4-fluorophenyl)picolinamide] | 4260 nM | 1.85% |  |
| NC(=O)c1cc(-c2ccc(F)cc2)c(OCCOc2ccccc2Br)cn1 [Compound 105, 5-(2-(2-bromophenoxy)ethoxy)-4-(4-fluorophenyl)picolinamide] | > 30000 nM |  |  |
| Cc1ncc(OCCCOc2cnc(C(N)=O)cc2-c2ccc(F)cc2)cn1 [Compound 125, 4-(4-fluorophenyl)-5-(3-((2-methylpyrimidin-5-yl)oxy)propoxy)picolinamide] | > 10000 nM | 35.1% |  |
| CC(COc1cnc(C(N)=O)cc1-c1ccc(F)cc1)Oc1ccnc(C(F)(F)F)c1 (stereo not shown) [Compound 124, 4-(4-fluorophenyl)-5-(2-((2-(trifluoromethyl)pyridin-4-yl)oxy)propoxy)picolinamide] | 835 nM | 0.75% |  |
| COc1ccc(-c2cc(C(N)=O)ncc2OCc2ccc(C)nc2)c(F)c1 [Compound 83, 4-(2-fluoro-4-methoxyphenyl)-5-((6-methylpyridin-3-yl)methoxy)picolinamide] | 216 nM | 1% |  |
| CC(Oc1cnc(C#N)cc1-c1ccc(F)cc1)c1cccnc1 (stereo not shown) [Compound 16, 4-(4-fluorophenyl)-5-(1-(pyridin-3-yl)ethoxy)picolinonitrile] | > 30000 nM |  |  |
| NC(=O)c1cc(-c2ccc(F)cc2)c(OCCOc2ccnc(C(F)(F)F)c2)cn1 [Compound 116, 4-(4-fluorophenyl)-5-(2-((2-(trifluoromethyl)pyridin-4-yl)oxy)ethoxy)picolinamide] | 242 ± 83 nM | 1.51 ± 0.16% |  |
| N#Cc1cccc(OCCOc2cnc(C(N)=O)cc2-c2ccc(F)cc2)c1F [Compound 155, 5-(2-(3-cyano-2-fluorophenoxy)ethoxy)-4-(4-fluorophenyl)picolinamide] | 528 nM | 1.07% |  |
| Cc1cc(COc2cnc(C#N)cc2-c2ccc(F)cc2)ccn1 [Compound 18, 4-(4-fluorophenyl)-5-((2-methylpyridin-4-yl)methoxy)picolinonitrile] | 2690 nM | 47.5% | (Partial NAM) |
| CC(Oc1cnc(C(N)=O)cc1-c1ccc(F)cc1)c1ccncc1 (stereo not shown) [Compound 48, 4-(4-fluorophenyl)-5-(1-(pyridin-4-yl)ethoxy)picolinamide] | 504 nM | 1.4% |  |
| Cc1ccc(OC(C)COc2cnc(C(N)=O)cc2-c2ccc(F)cc2)cn1 (stereo not shown) [Compound 121, 4-(4-fluorophenyl)-5-(2-((6-methylpyridin-3-yl)oxy)propoxy)picolinamide] | 2130 nM | 1.66% |  |
| Cc1ccc(COc2cnc(C(N)=O)cc2-c2ccc(C(F)(F)F)nc2)cn1 [Compound 84, 5′-((6-methylpyridin-3-yl)methoxy)-6-(trifluoromethyl)-[3,4′-bipyridine]-2′-carboxamide] | > 30000 nM |  |  |
| Cc1ccc(OCc2cnc(C(N)=O)cc2-c2ccc(F)cc2)cn1 [Compound 92, 4-(4-fluorophenyl)-5-(((6-methylpyridin-3-yl)oxy)methyl)picolinamide] | 1660 nM | -2.16% |  |
| N#Cc1cc(-c2ccc(F)cc2)c(OCc2ccc(Cl)nc2)cn1 [Compound 7, 5-((6-Chloropyridin-3-yl)methoxy)-4-(4-fluorophenyl)picolinonitrile] | > 30000 nM |  |  |
| N#Cc1cc(-c2ccc(F)cc2)c(OCc2cccnc2)cn1 [Compound 10, 4-(4-fluorophenyl)-5-(pyridin-3-ylmethoxy)picolinonitrile] | > 10000 nM | 37% |  |
